Consider ten molecules from ChEMBL document CHEMBL1135233, “Cytotoxic, antifouling bromotyramines: a synthetic study on simple marine natural products and Their analogues” (Bioorg Med Chem Lett, 2002).

Converted amounts (≈) assume the structure as drawn. A value given as a limit tells only on which side of the number the result lay.

Data set [1] has as its system NCI-H460. Nature of the data set: Tested for growth inhibition against human NCI-H460 lung cancer cell line at 100 uM. In kind it is functional.
Data set [2] has as its system NCI-H460. Nature of the data set: Tested for the cytotoxicity against NCI-H460 lung cancer cell line […]. Type of data set: functional. Particulars: Homo sapiens.
The subject of a further data set is MCF7. The data set can be described thus: Tested for growth inhibition against human MCF-7 breast cancer cell line at 100 uM. In kind it is functional.
The subject of a further data set is Amphibalanus amphitrite. Nature of the data set: Antifouling activity of compound against Balanus amphitrite expressed by inhibition of settlement of barnacle cyprids. In kind it is functional.
A short description of data set [3]: Tested for the lethality dose against barnacle cyprids of Balanus amphitrite. Particulars: Amphibalanus amphitrite; read-out: LD50 (the source's name).
The next data set has as its system SF-268. Nature of the data set: Tested for growth inhibition against human SF-268 CNS cancer cell line at 100 uM. Type of data set: functional.
Another data set has as its system P388. Nature of the data set: Tested for the inhibition against P388 murine leukemia cell. In kind it is functional, cell-based. Particulars: Mus musculus.
For a further data set, the system named is CCRF-CEM. The data set can be described thus: Tested for the cytotoxicity against CCRF-CEM leukemia cell line […]. Type of data set: functional. Particulars: Homo sapiens.
The test system of the next data set is Hs-578T. Nature of the data set: Tested for the cytotoxicity against Hs 578.T breast cancer cell line. In kind it is functional. Particulars: Homo sapiens.
The next data set has as its system NCI-H226. Nature of the data set: Tested for the cytotoxicity against NCI-H226 lung cancer cell line […]. Type of data set: functional. Particulars: Homo sapiens.
Another data set deals with SW-620. Nature of the data set: Tested for the cytotoxicity against SW-620 colon cancer cell line […]. Type of data set: functional. Particulars: Homo sapiens.

As to `CCCCCCCCNCCc1cc(Br)c(OC)c(Br)c1`, the Growth in the data set with NCI-H460 [1] was -83%; with MCF7, -82%; in the data set on SF-268, -84%. Besides, it took 50 nM to inhibit growth with NCI-H460 [2] by half (GI50). In addition, the EC50 with Amphibalanus amphitrite stood at 0.008 µg/mL (≈ 0.019 µM). Also, the LC50 in [3] was 0.03 µg/mL (≈ 0.0712 µM).
For `NCCCCOc1c(Br)cc(CCN)cc1Br`, the Growth with NCI-H460 [1] worked out at 25%; in the data set with MCF7, 19%; in the data set on SF-268, 50%. The molecule further returned an EC50 in the data set on Amphibalanus amphitrite of 6 µg/mL (≈ 16.4 µM).
As for `NCCCOc1c(Br)cc(CCN)cc1Br` [MOLOKA'IAMINE], the Growth with NCI-H460 [1] amounted to 68%; in the data set with MCF7, 38%; with SF-268, 62%. In the data set on Amphibalanus amphitrite, this molecule came in with an EC50 of 5 µg/mL (≈ 14.2 µM). It took 2.1 µg/mL (≈ 5.96 µM) to reach half-maximal inhibition in the data set with P388 (IC50).
As to `N#CC(=O)NCCCOc1c(Br)cc(CCN)cc1Br` [CERATINAMINE], the results for the Growth with NCI-H460 [1], with MCF7 and in the data set with SF-268 were 82%, 7% and 39%, respectively.
As for `NCCOc1c(Br)cc(CCN)cc1Br`, the results for the Growth with NCI-H460 [1], in the data set on MCF7 and in the data set on SF-268 were 70%, 39% and 70%, respectively. This molecule yielded an EC50 in the data set on Amphibalanus amphitrite of 0.8 µg/mL (≈ 2.37 µM).
Turning to `NCCCOc1c(Cl)cc(CCN)cc1Cl`, the values for the Growth in the data set with NCI-H460 [1], in the data set with MCF7 and with SF-268 were 93%, -53% and 85%, respectively. In the data set with Amphibalanus amphitrite, a half-maximal effect (EC50) was put at 33 µg/mL (≈ 125 µM).
In the case of `NCCCOc1ccc(CCN)cc1`, the Growth with NCI-H460 [1] stood at 120%; with MCF7 it was 104%; in the data set with SF-268, 120%. In addition, the EC50 in the data set with Amphibalanus amphitrite was greater than 50 µg/mL.
Consider `CC(=O)NCCc1cc(Br)c(O)c(Br)c1`, for which the Growth came out at 105% in the data set on NCI-H460 [1], 88% in the data set with MCF7 and 84% with SF-268.
Take `CCCCCCCC(=O)NCCc1cc(Br)c(OC)c(Br)c1`: the Growth in the data set on NCI-H460 [1] was 1%; in the data set on MCF7, -74%; in the data set with SF-268, -68%. This molecule also displayed a concentration for 50% growth inhibition (GI50) in the data set on CCRF-CEM of 400 nM. For the same molecule, in the data set with Amphibalanus amphitrite, the EC50 turned out to be 0.2 µg/mL (≈ 0.46 µM). Also, the LC50 in [3] came out at 1 µg/mL (≈ 2.3 µM).
Take `COc1c(Br)cc(CCN)cc1Br`: the Growth in the data set with NCI-H460 [1] was 53%; in the data set on MCF7 it was 8%; with SF-268 it was 16%. Also, the GI50 in the data set with CCRF-CEM is less than 10 nM; with Hs-578T, 200 nM; in the data set with NCI-H226 it was less than 10 nM; with SW-620, less than 10 nM. Moreover, a half-maximal response with Amphibalanus amphitrite (EC50) required 0.07 µg/mL (≈ 0.227 µM). In data set [3], the LC50 amounted to 0.2 µg/mL (≈ 0.647 µM).

The term GI50 denotes the concentration that inhibits growth by half. A lower GI50 goes with more potent growth inhibition. Usually EC50 stands for the midpoint of the concentration-response curve. By IC50 is commonly meant the concentration needed to halve the response being measured. Lower therefore signals greater potency in that assay.
